Measurements as given in patent US10913738B2 (BRISTOL-MYERS SQUIBB COMPANY, priority 2017, dated 2021).
Read-outs that look alike come from different tables or passages of the source.

Assays:
[1] = test system: MLKL phosphorylation in HT29-L23 human colorectal adenocarcinoma cells; test: MLKL Phosphorylation High-Content Assay; type: cell-based; details: Homo sapiens
Procedure, shortened: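 IC50 and Ymax obtained by 4-parameter logistic fitting of MLKL phosphorylation, measured as mean circ-ring average intensity ratio from high-content images. Staining used an anti-phospho-S358 MLKL antibody overnight at 4° C., following six-hour cell incubation at 37° C.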

[2] = biological target: T1, His-GST-TVMV-hRIPK1(1-324) (Homo sapiens, UniProt Q13546); test: RIPK1 HTRF Binding Assay
T1 construct: The coding region of human RIPK1(1-324) flanked by NdeI site at 5′ end; made in house; host or cells: Spodoptera frugiperda (Sf9) insect cells, baculovirus
T1 sequence (Q13546 1-324): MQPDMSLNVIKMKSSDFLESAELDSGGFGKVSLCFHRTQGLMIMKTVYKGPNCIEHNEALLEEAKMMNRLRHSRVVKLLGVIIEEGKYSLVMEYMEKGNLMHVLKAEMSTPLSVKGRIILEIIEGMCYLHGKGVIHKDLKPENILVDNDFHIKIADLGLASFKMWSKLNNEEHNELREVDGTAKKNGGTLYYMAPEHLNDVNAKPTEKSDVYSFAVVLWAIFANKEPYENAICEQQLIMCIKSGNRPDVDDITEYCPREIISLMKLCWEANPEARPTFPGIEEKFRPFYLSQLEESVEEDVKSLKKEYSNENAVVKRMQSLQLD

[3] = x marks IC50 class <20 nM, read-out: pMLKL cell activity <20 nM
[4] = x marks IC50 class <20 nM, read-out: RIPK1 HTRF binding <20 nM
[5] = x marks IC50 class >200 nM, read-out: pMLKL cell activity >200 nM
[6] = x marks IC50 class 20-200 nM, read-out: RIPK1 HTRF binding 20-200 nM
[7] = x marks IC50 class 20-200 nM, read-out: pMLKL cell activity 20-200 nM

## COc1ncc(-c2ccn3nc(N)nc3c2)cc1C(=O)NCc1ccccc1Sc1ccccc1CO [Example 151, 5-{2-amino-[1,2,4]triazolo[1,5-a]pyridin-7-yl}-N-[(2-{[2-(hydroxymethyl)phenyl]sulfanyl}phenyl)methyl]-2-methoxypyridine-3-carboxamide]
[1]; [3]
  IC50: < 20 nM
[2]; [4]
  IC50: < 20 nM

## COc1nc(C)c(-c2ccn3nc(N)nc3c2)cc1C(=O)NCCc1ccccc1OC(F)(F)F [Example 194, 5-{2-amino-[1,2,4]triazolo[1,5-a]pyridin-7-yl}-2-methoxy-6-methyl-N-{2-[2-(trifluoromethoxy)phenyl]ethyl}pyridine-3-carboxamide]
[1]; [5]
  IC50: > 200 nM
[2]; [6]
  IC50: 20 to 200 nM

## [2H]C([2H])([2H])c1ncc(-c2ccn3nc(N)nc3c2)cc1C(=O)NCc1cc(OC(F)(F)F)ccc1F [Example 96, 5-{2-amino-[1,2,4]triazolo[1,5-a]pyridin-7-yl}-N-{[2-fluoro-5-(trifluoromethoxy)phenyl]methyl}-2-(deutero)methylpyridine-3-carboxamide]
[1]; [7]
  IC50: 20 to 200 nM
[2]; [4]
  IC50: < 20 nM

## COc1nc(C)c(-c2ccn3nc(N)nc3c2)cc1C(=O)NCc1c(F)cccc1OC1CCCC1 [Example 217, 5-{2-amino-[1,2,4]triazolo[1,5-a]pyridin-7-yl}-N-{[2-(cyclopentyloxy)-6-fluorophenyl]methyl}-2-methoxy-6-methylpyridine-3-carboxamide]
[1]; [7]
  IC50: 20 to 200 nM
[2]; [4]
  IC50: < 20 nM

## COc1nc(C)c(-c2ccn3nc(N)nc3c2)cc1C(=O)NCc1cccc(OCC(F)(F)F)c1 [Example 334, 5-(2-amino-[1,2,4]triazolo[1,5-a]pyridin-7-yl)-2-methoxy-6-methyl-N-(3-(2,2,2-trifluoroethoxy)benzyl)nicotinamide]
[1]; [7]
  IC50: 20 to 200 nM
[2]; [4]
  IC50: < 20 nM

## COc1ncc(-c2ccn3nc(N)nc3c2)cc1C(=O)NCc1ccccc1OC1CCCCC1 [Example 44, 5-{2-Amino-[1,2,4]triazolo[1,5-a]pyridin-7-yl}-N-{[2-(cyclohexyloxy)phenyl]methyl}-2-methoxypyridine-3-carboxamide]
[1]; [7]
  IC50: 20 to 200 nM
[2]; [4]
  IC50: < 20 nM

## COc1ncc(-c2ccn3nc(N)nc3c2)cc1C(=O)N[C@H]1C[C@@H]1c1ccccc1 [Example 100, 5-{2-amino-[1,2,4]triazolo[1,5-a]pyridin-7-yl}-2-methoxy-N-[(1S,2R)-2-phenylcyclopropyl]pyridine-3-carboxamide]
[1]; [5]
  IC50: > 200 nM
[2]; [6]
  IC50: 20 to 200 nM

## COc1ncc(C(=O)NCc2c(F)cccc2OCC2CC2)cc1-c1ccn2nc(N)nc2c1 [Example 26, 5-{2-Amino-[1,2,4]triazolo[1,5-a]pyridin-7-yl}-N-{[2-(cyclopropylmethoxy)-6-fluorophenyl]methyl}-6-methoxypyridine-3-carboxamide]
[1]; [7]
  IC50: 20 to 200 nM
[2]; [4]
  IC50: < 20 nM

## [2H]C([2H])([2H])Oc1ncc(-c2ccn3nc(N)nc3c2)cc1C(=O)NCc1cc(F)cc(F)c1OCC1CC1 [Example 94, 5-{2-amino-[1,2,4]triazolo[1,5-a]pyridin-7-yl}-N-{[2-(cyclopropylmethoxy)-3,5-difluorophenyl]methyl}-2-(deutero)methoxypyridine-3-carboxamide]
[1]; [3]
  IC50: < 20 nM
[2]; [4]
  IC50: < 20 nM

## Cc1ncc(-c2ccn3nc(N)nc3c2)cc1C(=O)NCc1cc(F)cc(F)c1OC1CCOC(C)C1 (stereo not shown) [Example 316, 5-(2-amino-[1,2,4]triazolo[1,5-a]pyridin-7-yl)-N-(3,5-difluoro-2-((2-methyltetrahydro-2H-pyran-4-yl)oxy)benzyl)-2-methylnicotinamide]
[1]; [5]
  IC50: > 200 nM
[2]; [6]
  IC50: 20 to 200 nM

## CCOc1ccccc1CNC(=O)c1cc(-c2ccn3nc(N)nc3c2)cnc1OC [Example 153, 5-{2-amino-[1,2,4]triazolo[1,5-a]pyridin-7-yl}-N-[(2-ethoxyphenyl)methyl]-2-methoxypyridine-3-carboxamide]
[1]; [7]
  IC50: 20 to 200 nM
[2]; [4]
  IC50: < 20 nM

## COc1ncc(-c2ccn3nc(N)nc3c2)cc1C(=O)NC(C)c1cc(OC(F)(F)F)ccc1F (single isomer, unassigned) [Example 89-1, 5-{2-amino-[1,2,4]triazolo[1,5-a]pyridin-7-yl}-N-{1-[2-fluoro-5-(trifluoromethoxy)phenyl]ethyl}-2-methoxypyridine-3-carboxamide]
[1]; [7]
  IC50: 20 to 200 nM
[2]; [6]
  IC50: 20 to 200 nM

## COc1nc(C)c(-c2ccn3nc(N)nc3c2)cc1C(=O)NCc1ccccc1OC1CCOC1 (stereo not shown) [Example 6, 5-{2-Amino-[1,2,4]triazolo[1,5-a]pyridin-7-yl}-2-methoxy-6-methyl-N-{[2-(oxolan-3-yloxy)phenyl]methyl}pyridine-3-carboxamide]
[1]; [3]
  IC50: < 20 nM
[2]; [4]
  IC50: < 20 nM

## COc1nc(C)c(-c2ccn3nc(N)nc3c2)cc1C(=O)NCc1ncccc1OCC1CC1 [Example 33, 5-{2-Amino-[1,2,4]triazolo[1,5-a]pyridin-7-yl}-N-{[3-(cyclopropylmethoxy)pyridin-2-yl]methyl}-2-methoxy-6-methylpyridine-3-carboxamide]
[1]; [7]
  IC50: 20 to 200 nM
[2]; [4]
  IC50: < 20 nM

## [2H]C([2H])(NC(=O)c1cc(-c2ccn3nc(N)nc3c2)cnc1C)c1cc(F)cc(F)c1OCC1CC1 [Example 253, 5-{2-amino-[1,2,4]triazolo[1,5-a]pyridin-7-yl}-N-{[2-(cyclopropylmethoxy)-3,5-difluorophenyl](deutero)methyl}-2-methylpyridine-3-carboxamide]
[1]; [3]
  IC50: < 20 nM
[2]; [4]
  IC50: < 20 nM

## COc1nc(C)c(-c2ccn3nc(N)nc3c2)cc1C(=O)NC(C)c1cccc(OC(F)(F)F)c1 (stereo not shown) [Example 223, 5-{2-amino-[1,2,4]triazolo[1,5-a]pyridin-7-yl}-2-methoxy-6-methyl-N-{1-[3-(trifluoromethoxy)phenyl]ethyl}pyridine-3-carboxamide]
[1]; [7]
  IC50: 20 to 200 nM
[2]; [4]
  IC50: < 20 nM

## Cc1ncc(-c2ccn3nc(N)nc3c2)cc1NC(=O)Cc1cc(OC(F)(F)F)ccc1F [Example 420, N-(5-(2-amino-[1,2,4]triazolo[1,5-a]pyridin-7-yl)-2-methylpyridin-3-yl)-2-(2-fluoro-5-(trifluoromethoxy)phenyl)acetamide]
[1]; [7]
  IC50: 20 to 200 nM
[2]; [4]
  IC50: < 20 nM

## CCOc1ncc(-c2ccn3nc(N)nc3c2)cc1C(=O)NCc1ccccc1OCC1CCC1 [Example 268, 5-{2-amino-[1,2,4]triazolo[1,5-a]pyridin-7-yl}-N-{[2-(cyclobutylmethoxy)phenyl]methyl}-2-ethoxypyridine-3-carboxamide]
[1]; [7]
  IC50: 20 to 200 nM
[2]; [4]
  IC50: < 20 nM

## COc1nc(C)c(-c2ccn3nc(N)nc3c2)cc1C(=O)NCc1c(F)cccc1OCC1CC1 [Example 215, 5-{2-amino-[1,2,4]triazolo[1,5-a]pyridin-7-yl}-N-{[2-(cyclopropylmethoxy)-6-fluorophenyl]methyl}-2-methoxy-6-methylpyridine-3-carboxamide]
[1]; [3]
  IC50: < 20 nM
[2]; [4]
  IC50: < 20 nM

## COc1nc(C)c(-c2ccn3nc(N)nc3c2)cc1C(=O)NCc1ccccc1OCC1CCCC1 [Example 207, 5-{2-amino-[1,2,4]triazolo[1,5-a]pyridin-7-yl}-N-{[2-(cyclopentylmethoxy)phenyl]methyl}-2-methoxy-6-methylpyridine-3-carboxamide]
[1]; [3]
  IC50: < 20 nM
[2]; [4]
  IC50: < 20 nM

## COc1ncc(-c2ccn3nc(N)nc3c2)cc1C(=O)Nc1cnn(C(C)c2ccc(F)cc2)c1 (single isomer, unassigned) [Example 76-2]
[1]; [7]
  IC50: 20 to 200 nM
[2]; [4]
  IC50: < 20 nM

## COc1ncc(-c2ccn3nc(N)nc3c2)cc1C(=O)NCc1cccnc1OCC1CCC1 [Example 137, 5-{2-amino-[1,2,4]triazolo[1,5-a]pyridin-7-yl}-N-{[2-(cyclobutylmethoxy)pyridin-3-yl]methyl}-2-methoxypyridine-3-carboxamide]
[1]; [7]
  IC50: 20 to 200 nM
[2]; [4]
  IC50: < 20 nM

## Cc1ncc(-c2ccn3nc(N)nc3c2)cc1C(=O)NCC(C)(O)Cc1ccc(F)cc1 (stereo not shown) [Example 421, 5-(2-amino-[1,2,4]triazolo[1,5-a]pyridin-7-yl)-N-(3-(4-fluorophenyl)-2-hydroxy-2-methylpropyl)-2-methylnicotinamide]
[1]; [5]
  IC50: > 200 nM
[2]; [6]
  IC50: 20 to 200 nM

## [2H]C([2H])([2H])[C@@H](NC(=O)c1cc(-c2ccn3nc(N)nc3c2)cnc1C)c1cccc(OC(F)(F)F)c1 [Example 311, (R)-5-(2-amino-[1,2,4]triazolo[1,5-a]pyridin-7-yl)-2-methyl-N-(1-(3-(trifluoromethoxy)phenyl)ethyl-2,2,2-H3)nicotinamide]
[1]; [5]
  IC50: > 200 nM
[2]; [6]
  IC50: 20 to 200 nM

## Cc1nc(C)c(-c2ccn3nc(N)nc3c2)cc1C(=O)NCc1ccccc1OC(C)C1CCCC1 (stereo not shown) [Example 16, 5-{2-Amino-[1,2,4]triazolo[1,5-a]pyridin-7-yl}-N-{[2-(1-cyclopentylethoxy)phenyl]methyl}-2,6-dimethylpyridine-3-carboxamide]
[1]; [7]
  IC50: 20 to 200 nM
[2]; [4]
  IC50: < 20 nM

## Nc1nc2cc(-c3cnc(N)c(C(=O)NCc4ccccc4OCC4CCC4)c3)ccn2n1 [Example 49, 2-Amino-5-{2-amino-[1,2,4]triazolo[1,5-a]pyridin-7-yl}-N-{[2-(cyclobutylmethoxy)phenyl]methyl}pyridine-3-carboxamide]
[1]; [7]
  IC50: 20 to 200 nM
[2]; [4]
  IC50: < 20 nM
